Source: ChEMBL document CHEMBL4261505, “Imidazoles as potential anticancer agents” (Medchemcomm, 2017)
Each block holds one molecule with its values, some of them ahead of it.

Assays:
HeLa [1] = experiment: Antiproliferative activity against human HeLa cells after 72 hrs by MTT assay; type: functional, cell-based
LS180 = experiment: Antiproliferative activity against human LS180 cells after 72 hrs by MTT assay; type: functional, cell-based; settings: LS180, 72 h
MCF7 [2] = experiment: Antiproliferative activity against human MCF7 cells after 72 hrs by MTT assay; type: functional, cell-based; settings: MCF7, 72 h
Jurkat = experiment: Antiproliferative activity against human Jurkat cells after 72 hrs by MTT assay; type: functional, cell-based
HeLa [3] = experiment: Antiproliferative activity against human HeLa cells; type: functional, cell-based
MCF7 [4] = experiment: Antiproliferative activity against human MCF7 cells; type: functional, cell-based
HCT-116 = experiment: Antiproliferative activity against human HCT116 cells; type: functional, cell-based
A549 = experiment: Antiproliferative activity against human A549 cells; type: functional, cell-based
[5] = Antiproliferative activity against human WM3629 cells; type: functional
P388 [6] = experiment: Antitumor activity against mouse P388 cells implanted in DBA/2J mouse assessed as increase in mouse life span at 5 mg/kg, iv relative to control; type: functional
A-431 = experiment: Antitumor activity against human A431 cells xenografted in athymic mouse assessed as tumor growth inhibition at 25 mg/kg relative to control; type: functional; settings: read-out: TGI
Cytochrome P450 26A1 = target: T1, Cytochrome P450 26A1 (Homo sapiens, UniProt O43174); experiment: Inhibition of CYP26A1 (unknown origin)
T1 sequence (O43174 whole entry): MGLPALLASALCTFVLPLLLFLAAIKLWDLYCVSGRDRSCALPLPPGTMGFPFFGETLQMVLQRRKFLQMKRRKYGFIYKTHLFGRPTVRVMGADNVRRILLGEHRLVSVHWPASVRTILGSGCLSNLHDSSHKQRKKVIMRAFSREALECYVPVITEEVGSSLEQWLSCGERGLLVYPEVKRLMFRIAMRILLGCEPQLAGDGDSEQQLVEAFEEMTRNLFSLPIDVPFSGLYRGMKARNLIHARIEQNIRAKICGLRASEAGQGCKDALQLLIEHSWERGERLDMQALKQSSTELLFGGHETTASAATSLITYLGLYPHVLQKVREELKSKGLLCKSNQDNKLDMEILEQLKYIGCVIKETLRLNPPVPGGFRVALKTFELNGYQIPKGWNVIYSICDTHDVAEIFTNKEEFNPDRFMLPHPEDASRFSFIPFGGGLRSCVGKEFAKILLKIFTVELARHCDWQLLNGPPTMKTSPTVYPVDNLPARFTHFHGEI

P388 [7] = experiment: Antitumor activity against mouse P388 cells implanted in DBA/2J mouse assessed as increase in mouse life span at 200 mg/kg/day, po for 4 consecutive days relative to control; type: functional
NUGC-3 = experiment: Antiproliferative activity against human NUGC3 cells after 72 hrs by MTT assay; type: functional, cell-based; settings: NUGC-3, 72 h

SMILES: Cc1nc2cc(Cl)c(Cl)cc2n1C1CCCC1
IC50 (MCF7 [4]): 40 µM
IC50 (HCT-116): 3 µM

SMILES: C[S+]([O-])c1nc2cc(Cl)c(Cl)cc2n1C1CCCC1 (stereo unspecified)
IC50 (MCF7 [4]): 0.5 µM
IC50 (HCT-116): 0.5 µM

SMILES: C[C@H](O)CNc1nccc(-n2ccnc2-c2cccc(NC(=O)Nc3ccc(Cl)c(Cl)c3)c2)n1
GI50 [5]: 0.65 µM

SMILES: CC[C@]1(O)C[C@@H]2CN(CCc3c([nH]c4ccccc34)[C@@](C(=O)OC)(c3cc4c(cc3OC)N(C)[C@H]3[C@@](O)(C(=O)OC)[C@H](OC(C)=O)[C@]5(CC)C=CCN6CC[C@]43[C@@H]65)C2)C1 [VINBLASTINE]
ILS at 5 mg/kg (P388 [6]): 83%

SMILES: COc1ccc(Cc2[nH]c(=N)n(C)c2Cc2ccc(O)cc2)cc1 [NAAMINE A]
inhibition in vivo at 25 mg/kg (A-431): 85%

SMILES: CNC(=O)c1cc(Oc2ccc(NC(=O)Nc3ccc(Cl)c(C(F)(F)F)c3)cc2)ccn1 [SORAFENIB]
GI50 [5]: 0.78 µM

SMILES: Nc1nc(-c2cccs2)cn1-c1nc(-c2ccccc2)cs1
ILS at 200 mg/kg/day (P388 [7]): 75%
IC50 (NUGC-3): 0.05 µM

SMILES: C[C@H](O)CNc1nccc(-n2ccnc2-c2cccc(NC(=O)c3ccc(Cl)c(C(F)(F)F)c3)c2)n1
GI50 [5]: 0.62 µM

Further lines, with some results ahead:

IC50 (HeLa [1]): 59 µM
IC50 (MCF7 [2]): 77.1 µM
IC50 (Jurkat): 95.8 µM
SMILES: CC1CC(=O)C2=C(C1)N(c1ccccc1)C1=C(C(=O)c3ccccc31)C2c1nc(Cl)c(Cl)[nH]1 (stereo unspecified)
IC16 (HeLa [1]): 10.7 µM
IC16 (LS180): 19.4 µM
IC50 (LS180): > 100 µM
IC16 (MCF7 [2]): 13.6 µM
IC16 (Jurkat): 1.7 µM

IC50 (HeLa [3]): 30.2 µM
SMILES: CCCCc1nc(Cl)c(-c2nc3ccccc3[nH]2)n1Cc1cccc(C)c1

IC50 (HeLa [3]): 25.3 µM
SMILES: CCCCCCCn1c(CCCC)nc(Cl)c1-c1nc2ccccc2[nH]1

IC50 (A549): 0.64 µM
SMILES: COc1ccc(-c2sc3nc(-c4ccc(F)cc4)c(C(=O)c4cccnc4)n3c2-c2ccc(OC)cc2)cc1

IC50 (HeLa [1]): > 25 µM
IC50 (MCF7 [2]): > 25 µM
IC50 (Jurkat): > 25 µM
SMILES: CC1CC(=O)C2=C(C1)NC1=C(C(=O)c3ccccc31)C2c1ncc([N+](=O)[O-])n1C (stereo unspecified)
IC16 (HeLa [1]): 9.2 µM
IC16 (LS180): 12.5 µM
IC50 (LS180): > 25 µM
IC16 (MCF7 [2]): > 25 µM
IC16 (Jurkat): 0.7 µM

IC50 (HeLa [1]): > 100 µM
IC50 (MCF7 [2]): > 100 µM
IC50 (Jurkat): 70.9 µM
SMILES: O=C1CCCc2nc3c(c(-c4ncc[nH]4)c21)C(=O)c1ccccc1-3
IC16 (HeLa [1]): > 100 µM
IC16 (LS180): > 100 µM
IC50 (LS180): > 100 µM
IC16 (MCF7 [2]): > 100 µM
IC16 (Jurkat): 1.7 µM

IC50 (MCF7 [4]): 0.6 µM
IC50 (HCT-116): 0.6 µM
SMILES: CS(=O)(=O)c1nc2cc(Cl)c(Cl)cc2n1C1CCCC1

IC50 (Cytochrome P450 26A1): 0.03 µM
SMILES: COC(=O)C(C)(C)C(c1ccc(Nc2ccc3ccccc3c2)cc1)n1ccnc1 (stereo unspecified)
